The text below walks through data of patent publication US10988477B2 (Merck Patent GmbH, priority 2018, dated 2021).

Structures are written as SMILES. pIC50, pKi: −log10 of the molar value.

In one assay the target is GCN2 kinase (Homo sapiens, UniProt Q9P2K8). Description: GCN2 enzyme inhibition assay (Transcreener ADP2 fluorescence polarization). Format: biochemical. To be noted: Enzyme activity for compounds of Formula IV; Ki(app), 280 μM ATP, 25° C. Summed up: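 Run at 25 °C in 25 mM Tris-HCl pH 7.5, 50 mM NaCl, 10 mM MgCl2, 1 mM DTT with 4 nM GCN2, 280 μM ATP and 200 μM (RS)7 peptide; compound (0–8 μM final) preincubated 10 min, reaction 1 h. ADP read by antibody/tracer FP; IC50 and Ki(app) from tight-binding fit.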
Sequence of GCN2 kinase (Q9P2K8 whole entry): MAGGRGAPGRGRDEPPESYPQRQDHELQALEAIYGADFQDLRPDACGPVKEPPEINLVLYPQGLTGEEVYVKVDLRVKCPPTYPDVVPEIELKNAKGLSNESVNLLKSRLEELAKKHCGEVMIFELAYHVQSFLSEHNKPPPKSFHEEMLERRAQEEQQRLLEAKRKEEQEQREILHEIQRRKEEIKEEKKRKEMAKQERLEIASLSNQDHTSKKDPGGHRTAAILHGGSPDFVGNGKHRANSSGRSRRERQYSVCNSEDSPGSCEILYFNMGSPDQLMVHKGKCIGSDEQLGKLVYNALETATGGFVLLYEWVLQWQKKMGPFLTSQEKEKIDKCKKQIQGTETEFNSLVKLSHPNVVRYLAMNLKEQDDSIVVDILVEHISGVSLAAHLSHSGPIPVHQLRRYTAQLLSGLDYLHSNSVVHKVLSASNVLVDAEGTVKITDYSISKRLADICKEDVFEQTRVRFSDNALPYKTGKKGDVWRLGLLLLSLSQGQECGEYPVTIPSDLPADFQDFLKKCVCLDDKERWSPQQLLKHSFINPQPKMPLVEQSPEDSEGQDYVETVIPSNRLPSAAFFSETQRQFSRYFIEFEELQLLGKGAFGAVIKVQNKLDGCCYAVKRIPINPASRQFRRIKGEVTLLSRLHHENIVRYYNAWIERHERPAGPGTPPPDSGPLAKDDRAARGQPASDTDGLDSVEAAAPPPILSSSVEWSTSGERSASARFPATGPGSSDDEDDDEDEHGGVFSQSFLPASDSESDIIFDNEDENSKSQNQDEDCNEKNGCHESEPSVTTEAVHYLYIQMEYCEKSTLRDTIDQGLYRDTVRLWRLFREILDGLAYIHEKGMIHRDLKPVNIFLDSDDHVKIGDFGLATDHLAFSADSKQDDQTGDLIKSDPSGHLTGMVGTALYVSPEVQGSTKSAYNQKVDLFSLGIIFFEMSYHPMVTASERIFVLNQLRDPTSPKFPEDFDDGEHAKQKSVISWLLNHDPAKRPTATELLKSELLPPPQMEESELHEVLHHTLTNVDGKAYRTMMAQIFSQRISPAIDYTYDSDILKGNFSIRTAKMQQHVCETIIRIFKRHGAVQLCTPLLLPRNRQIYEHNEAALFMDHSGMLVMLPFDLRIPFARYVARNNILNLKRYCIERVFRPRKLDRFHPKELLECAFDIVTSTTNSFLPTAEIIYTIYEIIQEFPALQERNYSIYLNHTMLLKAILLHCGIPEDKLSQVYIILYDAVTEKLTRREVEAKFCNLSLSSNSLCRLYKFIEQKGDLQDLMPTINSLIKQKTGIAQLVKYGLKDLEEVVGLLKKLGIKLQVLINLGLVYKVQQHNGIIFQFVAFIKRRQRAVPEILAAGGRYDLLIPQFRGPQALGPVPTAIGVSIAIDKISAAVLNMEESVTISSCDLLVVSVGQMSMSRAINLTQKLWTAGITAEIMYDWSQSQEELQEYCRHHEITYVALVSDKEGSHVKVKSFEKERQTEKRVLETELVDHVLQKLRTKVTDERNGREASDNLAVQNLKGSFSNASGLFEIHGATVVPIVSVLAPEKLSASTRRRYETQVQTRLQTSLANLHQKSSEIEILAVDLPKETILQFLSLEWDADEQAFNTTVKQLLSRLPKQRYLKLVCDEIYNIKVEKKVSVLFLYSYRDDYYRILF

Assay [1] addresses intracellular GCN2 (phosphorylation of the GCN2 substrate eIF2α) (Homo sapiens, UniProt Q9P2K8). Description: GCN2 cellular inhibition assay (AlphaScreen SureFire P-eIF2α Ser51, borrelidin-treated U2OS cells). Format: cell-based. The conditions noted are these: compounds of Formula IV; biomarker assay, phosphorylated eIF2α Ser51 in borrelidin-treated U2OS cells. Summed up:
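Borrelidin at 10 μM is added to U2OS cells immediately after compound (4-fold dilution series, 40 μM top final) for 1 h at 37 °C. Phosphorylated eIF2α Ser51 in lysates is quantified by AlphaScreen and expressed as percent inhibition against borrelidin-stimulated controls.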

Sequence of intracellular GCN2 (phosphorylation of the GCN2 substrate eIF2α) (Q9P2K8 whole entry): as above

Regarding `CC1CN(c2ncc(F)c(-c3cnc4cnc(C(F)(F)F)cn34)n2)C(C)C(c2cn[nH]c2)N1` (stereo not drawn) [IV-421, 3-(2-(2,5-Dimethyl-3-(1H-pyrazol-4-yl)piperazin-1-yl)-5-fluoropyrimidin-4-yl)-6-(trifluoromethyl)imidazo[1,2-a]pyrazine], the pKi at GCN2 kinase is 7.00 to 8.00. The same compound showed a negative logarithm of the IC50 (pIC50) in assay [1] of 5.30 to 6.30.
`CC1CN(c2ncc(F)c(-c3cnc4cnc(C(F)(F)F)cn34)n2)CC(c2cn[nH]c2)N1` (stereo not drawn) [IV-422, 3-(5-Fluoro-2-(3-methyl-5-(1H-pyrazol-4-yl)piperazin-1-yl)pyrimidin-4-yl)-6-(trifluoromethyl)imidazo[1,2-a]pyrazine] showed a pKi at GCN2 kinase of 6.00 to 7.00. The same compound gave a pIC50 in assay [1] of less than 5.30.
For `FC(F)(F)c1cn2c(-c3nccc(N4CCCCC4)n3)cnc2cn1` [IV-423, 3-(4-(Piperidin-1-yl)pyrimidin-2-yl)-6-(trifluoromethyl)imidazo[1,2-a]pyrazine], on GCN2 kinase, the negative logarithm of the Ki (pKi) was 6.00 to 7.00. The compound further showed a pIC50 in assay [1] of less than 5.30.
In the same order, the values of `CC1CCCN(c2ccnc(-c3cnc4cnc(C(F)(F)F)cn34)n2)C1` (stereo not drawn) [IV-424, 3-(4-(3-Methylpiperidin-1-yl)pyrimidin-2-yl)-6-(trifluoromethyl)imidazo[1,2-a]pyrazine] are 6.00 to 7.00 and less than 5.30.
In the same order, the values of `NC(=O)C1COCCN(c2ccnc(-c3cnc4cnc(C(F)(F)F)cn34)n2)C1` (stereo not drawn) [IV-425, 4-(2-(6-(Trifluoromethyl)imidazo[1,2-a]pyrazin-3-yl)pyrimidin-4-yl)-1,4-oxazepane-6-carboxamide] are 6.00 to 7.00 and less than 5.30.
In the same order, the values of `FC(F)(F)c1cn2c(-c3nccc(N4CCOCC4)n3)cnc2cn1` [IV-426, 4-(2-(6-(Trifluoromethyl)imidazo[1,2-a]pyrazin-3-yl)pyrimidin-4-yl)morpholine] are 6.00 to 7.00 and less than 5.30.
With `FC(F)(F)c1cn2c(-c3nccc(N4CCCOCC4)n3)cnc2cn1` [IV-427, 4-(2-(6-(Trifluoromethyl)imidazo[1,2-a]pyrazin-3-yl)pyrimidin-4-yl)-1,4-oxazepane], the pKi at GCN2 kinase was 6.00 to 7.00. The negative logarithm of the IC50 (pIC50) in assay [1] is less than 5.30.
In the same order, the values of `OCCC1CCN(c2ccnc(-c3cnc4cnc(C(F)(F)F)cn34)n2)C1` (stereo not drawn) [IV-435, 2-(1-(2-(6-(Trifluoromethyl)imidazo[1,2-a]pyrazin-3-yl)pyrimidin-4-yl)pyrrolidin-3-yl)ethan-1-ol] are 6.00 to 7.00 and 5.30 to 6.30.
In the same order, the values of `OCC1CCCN1c1ccnc(-c2cnc3cnc(C(F)(F)F)cn23)n1` (stereo not drawn) [IV-436, (1-(2-(6-(Trifluoromethyl)imidazo[1,2-a]pyrazin-3-yl)pyrimidin-4-yl)pyrrolidin-2-yl)methanol] are 6.00 to 7.00 and less than 5.30.
With `OC1CCCN(c2ccnc(-c3cnc4cnc(C(F)(F)F)cn34)n2)C1` (stereo not drawn) [IV-437, 1-(2-(6-(Trifluoromethyl)imidazo[1,2-a]pyrazin-3-yl)pyrimidin-4-yl)piperidin-3-ol], the pKi on GCN2 kinase was 6.00 to 7.00. This compound had a pIC50 in assay [1] of less than 5.30.
As for `OCC1CCCN(c2ccnc(-c3cnc4cnc(C(F)(F)F)cn34)n2)C1` (stereo not drawn) [IV-439, (1-(2-(6-(Trifluoromethyl)imidazo[1,2-a]pyrazin-3-yl)pyrimidin-4-yl)piperidin-3-yl)methanol], the pKi on GCN2 kinase is 6.00 to 7.00. Besides, in assay [1], the pIC50 is less than 5.30.
In the same order, the values of `OCCC1CCN(c2ccnc(-c3cnc4cnc(C(F)(F)F)cn34)n2)CC1` [IV-442, 2-(1-(2-(6-(Trifluoromethyl)imidazo[1,2-a]pyrazin-3-yl)pyrimidin-4-yl)piperidin-4-yl)ethan-1-ol] are 6.00 to 7.00 and less than 5.30.
In the same order, the values of `OCC1CCN(c2ccnc(-c3cnc4cnc(C(F)(F)F)cn34)n2)CC1` [IV-443, (1-(2-(6-(Trifluoromethyl)imidazo[1,2-a]pyrazin-3-yl)pyrimidin-4-yl)piperidin-4-yl)methanol] are 6.00 to 7.00 and less than 5.30.
In the same order, the values of `OCCC1CCCN(c2ccnc(-c3cnc4cnc(C(F)(F)F)cn34)n2)C1` (stereo not drawn) [IV-444, 2-(1-(2-(6-(Trifluoromethyl)imidazo[1,2-a]pyrazin-3-yl)pyrimidin-4-yl)piperidin-3-yl)ethan-1-ol] are 6.00 to 7.00 and less than 5.30.
Regarding `OC1CCCN(c2ccnc(-c3cnc4cnc(C(F)(F)F)cn34)n2)CC1` (stereo not drawn) [IV-447, 1-(2-(6-(Trifluoromethyl)imidazo[1,2-a]pyrazin-3-yl)pyrimidin-4-yl)azepan-4-ol], at GCN2 kinase, the pKi is 6.00 to 7.00. This compound also gave a pIC50 in assay [1] of less than 5.30.
`FC(F)(F)c1cn2c(-c3nccc(-c4cnn(C5CCOC5)c4)n3)cnc2cn1` (stereo not drawn) [IV-449, 3-(4-(1-(Tetrahydrofuran-3-yl)-1H-pyrazol-4-yl)pyrimidin-2-yl)-6-(trifluoromethyl)imidazo[1,2-a]pyrazine] gave a pKi at GCN2 kinase of 6.00 to 7.00. In addition, the pIC50 in assay [1] was less than 5.30.
In the same order, the values of `Cc1[nH]ncc1C1CCCN(c2ccnc(-c3cnc4cnc(C(F)(F)F)cn34)n2)C1` (stereo not drawn) [IV-452, 3-(4-(3-(5-Methyl-1H-pyrazol-4-yl)piperidin-1-yl)pyrimidin-2-yl)-6-(trifluoromethyl)imidazo[1,2-a]pyrazine] are more than 8.00 and 5.30 to 6.30.
In the same order, the values of `CC1C(c2cn[nH]c2)NCCN1c1ccnc(-c2cnc3cnc(C(F)F)cn23)n1` (stereo not drawn) [IV-454, 6-(Difluoromethyl)-3-(4-(2-methyl-3-(1H-pyrazol-4-yl)piperazin-1-yl)pyrimidin-2-yl)imidazo[1,2-a]pyrazine] are 7.00 to 8.00 and 5.30 to 6.30.
In turn, `FC(F)OC1CC(c2cn[nH]c2)CN(c2ccnc(-c3cnc4cnc(C(F)(F)F)cn34)n2)C1` (stereo not drawn) [IV-466, 3-(4-(3-(Difluoromethoxy)-5-(1H-pyrazol-4-yl)piperidin-1-yl)pyrimidin-2-yl)-6-(trifluoromethyl)imidazo[1,2-a]pyrazine] gave a pKi on GCN2 kinase of more than 8.00. Moreover, the negative-log IC50 (pIC50) in assay [1] is 5.30 to 6.30.
In the same order, the values of `FC(F)OC1CC(c2cn[nH]c2)CN(c2ccnc(-c3cnc4cnc(C(F)(F)F)cn34)n2)C1` (stereo not drawn) [IV-472, 3-(4-(3-(Difluoromethoxy)-5-(1H-pyrazol-4-yl)piperidin-1-yl)pyrimidin-2-yl)-6-(trifluoromethyl)imidazo[1,2-a]pyrazine] are 7.00 to 8.00 and 5.30 to 6.30.
For `O=C1NCC2CN(c3ccnc(-c4cnc5cnc(C(F)(F)F)cn45)n3)CCN12` (stereo not drawn) [IV-480, 7-(2-(6-(Trifluoromethyl)imidazo[1,2-a]pyrazin-3-yl)pyrimidin-4-yl)hexahydroimidazo[1,5-a]pyrazin-3(2H)-one], the pKi at GCN2 kinase was 6.00 to 7.00. In addition, in assay [1], the pIC50 was less than 5.30.
In the same order, the values of `CC1C(c2cn[nH]c2)CCCN1c1nccc(-c2cnc3cnc(C(F)(F)F)cn23)n1` (stereo not drawn) [IV-485, 3-(2-(2-Methyl-3-(1H-pyrazol-4-yl)piperidin-1-yl)pyrimidin-4-yl)-6-(trifluoromethyl)imidazo[1,2-a]pyrazine] are more than 8.00 and more than 6.30.
In the same order, the values of `NCCC1CCCN(c2ccnc(-c3cnc4cnc(C(F)(F)F)cn34)n2)C1` (stereo not drawn) [IV-488] are 6.00 to 7.00 and less than 5.30.
In the same order, the values of `FC(F)(F)c1cn2c(-c3nccc(N4CCCC(n5ccnn5)C4)n3)cnc2cn1` (stereo not drawn) [IV-493, 3-(4-(3-(1H-1,2,3-Triazol-1-yl)piperidin-1-yl)pyrimidin-2-yl)-6-(trifluoromethyl)imidazo[1,2-a]pyrazine] are 7.00 to 8.00 and less than 5.30.
`FC(F)(F)c1cn2c(-c3nccc(N4CCC(c5cn[nH]c5)C4)n3)cnc2cn1` (stereo not drawn) [IV-494, 3-(4-(3-(1H-Pyrazol-4-yl)pyrrolidin-1-yl)pyrimidin-2-yl)-6-(trifluoromethyl)imidazo[1,2-a]pyrazine] gave a pKi on GCN2 kinase of 7.00 to 8.00. Moreover, the pIC50 in assay [1] is 5.30 to 6.30.
In the same order, the values of `COCC1CCCN(c2ccnc(-c3cnc4cnc(C(F)(F)F)cn34)n2)C1` (stereo not drawn) [IV-495, 3-(4-(3-(Methoxymethyl)piperidin-1-yl)pyrimidin-2-yl)-6-(trifluoromethyl)imidazo[1,2-a]pyrazine] are 6.00 to 7.00 and less than 5.30.
In the same order, the values of `Fc1n[nH]cc1C1CCN(c2ccnc(-c3cnc4cnc(C(F)(F)F)cn34)n2)C1` (stereo not drawn) [IV-524, 3-(4-(3-(3-Fluoro-1H-pyrazol-4-yl)pyrrolidin-1-yl)pyrimidin-2-yl)-6-(trifluoromethyl)imidazo[1,2-a]pyrazine] are more than 8.00 and more than 6.30.
In the same order, the values of `CC1CN(c2ccnc(-c3cnc4cnc(C(F)(F)F)cn34)n2)C(C)C(c2c[nH]cn2)O1` (stereo not drawn) [IV-525, 2-(1H-Imidazol-4-yl)-3,6-dimethyl-4-(2-(6-(trifluoromethyl)imidazo[1,2-a]pyrazin-3-yl)pyrimidin-4-yl)morpholine] are more than 8.00 and 5.30 to 6.30.
`FC(F)(F)c1cn2c(-c3nccc(N4CCC=C(c5cnsc5)C4)n3)cnc2cn1` [IV-535, 4-(1-(2-(6-(Trifluoromethyl)imidazo[1,2-a]pyrazin-3-yl)pyrimidin-4-yl)-1,2,5,6-tetrahydropyridin-3-yl)isothiazole] gave a pKi at GCN2 kinase of 7.00 to 8.00. In assay [1], this compound showed a pIC50 of 5.30 to 6.30.
In the same order, the values of `N#Cc1n[nH]cc1C1=CCCN(c2ccnc(-c3cnc4cnc(C(F)(F)F)cn34)n2)C1` [IV-548, 4-(1-(2-(6-(Trifluoromethyl)imidazo[1,2-a]pyrazin-3-yl)pyrimidin-4-yl)-1,2,5,6-tetrahydropyridin-3-yl)-1H-pyrazole-3-carbonitrile] are more than 8.00 and 5.30 to 6.30.
